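Compound exposure: 48 hours, 5 concentrations, 96-well plates. At the GI50, growth is halved.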 Active and inactive are the calls of the source. No stated cut-off is given here; in the data, active = GI50 up to about 1.1 µM and inactive = higher.
Assays:
Assay in all cases: NCI anticancer screen, dose series, 48 h
786-0 = tested on: 786-0
A498 = tested on: A498
A549 = tested on: A549
ACHN = tested on: ACHN
BT-549 = tested on: BT-549
CAKI-1 = tested on: CAKI-1
CCRF-CEM = tested on: CCRF-CEM
COLO 205 = tested on: COLO 205
DU-145 = tested on: DU-145
EKVX = tested on: EKVX
HCC 2998 = tested on: HCC 2998
HCT-116 = tested on: HCT-116
HCT-15 = tested on: HCT-15
HL-60 = tested on: HL-60
HOP-62 = tested on: HOP-62
HOP-92 = tested on: HOP-92
HT-29 = tested on: HT-29
Hs-578T = tested on: Hs-578T
IGROV-1 = tested on: IGROV-1
K562 = tested on: K562
KM12 = tested on: KM12
LOX IMVI = tested on: LOX IMVI
M14 = tested on: M14
MDA-MB-231 = tested on: MDA-MB-231
MDA-MB-435 = tested on: MDA-MB-435
MOLT-4 = tested on: MOLT-4
Malme-3M = tested on: Malme-3M
NCI-H226 = tested on: NCI-H226
NCI-H23 = tested on: NCI-H23
NCI-H460 = tested on: NCI-H460
NCI-H522 = tested on: NCI-H522
NCI/ADR-RES = tested on: NCI/ADR-RES
OVCAR-3 = tested on: OVCAR-3
OVCAR-4 = tested on: OVCAR-4
OVCAR-5 = tested on: OVCAR-5
OVCAR-8 = tested on: OVCAR-8
PC-3 = tested on: PC-3
RPMI-8226 = tested on: RPMI-8226
RXF 393 = tested on: RXF 393
SF-268 = tested on: SF-268
SF-295 = tested on: SF-295
SK-MEL-28 = tested on: SK-MEL-28
SK-MEL-2 = tested on: SK-MEL-2
SK-MEL-5 = tested on: SK-MEL-5
SK-OV-3 = tested on: SK-OV-3
SNB-19 = tested on: SNB-19
SNB-75 = tested on: SNB-75
SR = tested on: SR
SW-620 = tested on: SW-620
T47D = tested on: T47D
TK-10 = tested on: TK-10
U-251 = tested on: U-251
UACC-257 = tested on: UACC-257
UACC-62 = tested on: UACC-62
UO-31 = tested on: UO-31

CON(C(=O)OC(C)(C)C)c1ccccc1
GI50 (786-0): > 100 µM (inactive)
GI50 (A498): > 100 µM (inactive)
GI50 (A549): > 100 µM (inactive)
GI50 (ACHN): > 100 µM (inactive)
GI50 (BT-549): 43.6 µM (inactive)
GI50 (CAKI-1): > 100 µM (inactive)
GI50 (CCRF-CEM): > 100 µM (inactive)
GI50 (COLO 205): > 100 µM (inactive)
GI50 (DU-145): > 100 µM (inactive)
GI50 (EKVX): > 100 µM (inactive)
GI50 (HCC 2998): > 100 µM (inactive)
GI50 (HCT-116): > 100 µM (inactive)
GI50 (HCT-15): > 100 µM
GI50 (HL-60): > 100 µM (inactive)
GI50 (HOP-62): > 100 µM (inactive)
GI50 (HOP-92): > 100 µM (inactive)
GI50 (HT-29): > 100 µM (inactive)
GI50 (Hs-578T): > 100 µM (inactive)
GI50 (IGROV-1): > 100 µM (inactive)
GI50 (K562): > 100 µM (inactive)
GI50 (KM12): > 100 µM (inactive)
GI50 (LOX IMVI): > 100 µM (inactive)
GI50 (M14): > 100 µM (inactive)
GI50 (MDA-MB-231): > 100 µM (inactive)
GI50 (MDA-MB-435): > 100 µM (inactive)
GI50 (MOLT-4): > 100 µM (inactive)
GI50 (Malme-3M): > 100 µM (inactive)
GI50 (NCI-H226): > 100 µM (inactive)
GI50 (NCI-H23): > 100 µM (inactive)
GI50 (NCI-H460): > 100 µM (inactive)
GI50 (NCI-H522): > 100 µM (inactive)
GI50 (NCI/ADR-RES): > 100 µM (inactive)
GI50 (OVCAR-3): > 100 µM (inactive)
GI50 (OVCAR-4): > 100 µM (inactive)
GI50 (OVCAR-5): > 100 µM (inactive)
GI50 (OVCAR-8): > 100 µM (inactive)
GI50 (PC-3): > 100 µM (inactive)
GI50 (RPMI-8226): > 100 µM (inactive)
GI50 (RXF 393): > 100 µM (inactive)
GI50 (SF-268): > 100 µM (inactive)
GI50 (SF-295): > 100 µM (inactive)
GI50 (SK-MEL-28): > 100 µM (inactive)
GI50 (SK-MEL-2): > 100 µM (inactive)
GI50 (SK-MEL-5): > 100 µM (inactive)
GI50 (SK-OV-3): > 100 µM (inactive)
GI50 (SNB-19): > 100 µM (inactive)
GI50 (SNB-75): > 100 µM (inactive)
GI50 (SR): > 100 µM (inactive)
GI50 (SW-620): > 100 µM (inactive)
GI50 (T47D): > 100 µM (inactive)
GI50 (TK-10): > 100 µM (inactive)
GI50 (U-251): > 100 µM (inactive)
GI50 (UACC-257): > 100 µM (inactive)
GI50 (UACC-62): > 100 µM (inactive)
GI50 (UO-31): > 100 µM (inactive)

From ChEMBL document CHEMBL1201862, “PubChem BioAssay data set” (2004)
